Experiments:
[1] = target: T1, human MCH receptor 1 (MCHR1) (Homo sapiens, UniProt Q99705); assay: human MCH receptor 1 (MCHR1) competitive binding assay with [125I]-MCH(4-19); settings: test compound 0.1 μM, human MCHR1-expressing CHO cell membrane fraction, read-out: Binding inhibition rate % (0.1 μM)
T1 construct: expressed in transfected cells; host or cells: CHO cell clone 57 (membrane fraction)
Method in brief: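 Percent binding inhibition by 0.1 μM test compound, corrected for nonspecific binding defined with unlabeled MCH(1-19), is read by scintillation after filtration onto PEI-treated GF/C filters. The reaction runs 1 hr at room temperature with [125I]-MCH(4-19) and human MCHR1-CHO cell membranes in Tris-HCl pH 7.5 buffer containing EDTA and protease inhibitors.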

[2] = target: T2, human MCHR1 (Homo sapiens, UniProt Q99705); assay: MCH receptor 1 antagonistic activity, Ca2+ mobilization assay; type: cell-based; settings: CHO, test compound 0.1 μM; human MCHR1-expressing CHO cells (clone #4); ligand MCH(4-19) 2 nM; read-out: Inhibitory rate % (0.1 μM)
T2 construct: expressed in transfected cells; host or cells: CHO dhfr- cells, clone #4
Description: Measurement of MCH Receptor 1 Antagonistic Activity of Test Compound Using Ca^2+ Mobilization Assay Using an expression vector plasmid introduced with human MCHR1 gene for expression in animal cells, human MCHR1 gene was introduced into CHO cells (CHO dhfr^−) by Lipofectamine LTX (Invitrogen). The cells were cultured in selection MEMα medium [445 mL of MEMα medium without nucleic acid and added with 5 mL of Penicillin-Streptomycin (Invitrogen) and 50 mL of dialyzed fetal bovine serum]. Colony 24 clones grown in the selection medium, which were human MCHR1 gene-expressing CHO cell candidates, were selected. […] In the following test, this human MCHR1-expressing CHO cell (clone #4) was used. An integrated dispensing function fluorometer (CellLux, PerkinElmer) was used for Ca^2+ mobilization assay. […] The medium was removed, and the cells were washed with phosphate buffered saline (PBS). […] The plate was set on a plate reader. […] The inhibition rates (%) of test compounds (0.1 μM) as antagonist activity measured using human MCHR1-expressing CHO cells (clone #4) are shown in the following Table 3.

T1 sequence (Q99705 whole entry): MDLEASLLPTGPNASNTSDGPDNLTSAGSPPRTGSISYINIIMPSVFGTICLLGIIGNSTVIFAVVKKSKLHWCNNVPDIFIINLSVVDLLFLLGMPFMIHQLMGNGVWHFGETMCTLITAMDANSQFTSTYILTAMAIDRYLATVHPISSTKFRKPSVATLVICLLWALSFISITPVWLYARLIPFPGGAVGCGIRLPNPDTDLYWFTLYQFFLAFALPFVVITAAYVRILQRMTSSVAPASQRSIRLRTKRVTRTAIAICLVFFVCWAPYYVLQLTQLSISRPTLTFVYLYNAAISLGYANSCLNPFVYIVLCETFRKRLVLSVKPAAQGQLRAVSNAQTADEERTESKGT
T2 sequence (Q99705 whole entry): as above

## Cn1c(C2CC2)nc2ccc(-n3ccc(OCc4cccs4)cc3=O)cc21 [Example 124, 1-(2-Cyclopropyl-1-methyl-1H-benzimidazol-6-yl)-4-(2-thienylmethoxy)pyridin-2(1H)-one]
[1]
  inhibition at 0.1 µM: 58%
[2]
  inhibition at 0.1 µM: 80%

## Cn1c(C2CC2)nc2ccc(-n3ccc(OCc4cccc(Cl)c4)cc3=O)cc21 [Example 127, 4-((3-Chlorobenzyl)oxy)-1-(2-cyclopropyl-1-methyl-1H-benzimidazol-6-yl)pyridin-2(1H)-one]
[1]
  inhibition at 0.1 µM: 80%
[2]
  inhibition at 0.1 µM: 77%

## Cc1c(C2CC2)nc2ccc(-n3ccc(OCc4cccc(F)c4)cc3=O)cn12 [Example 130, 1-(2-Cyclopropyl-3-methylimidazo[1,2-a]pyridin-6-yl)-4-((3-fluorobenzyl)oxy)pyridin-2(1H)-one]
[1]
  inhibition at 0.1 µM: 79%
[2]
  inhibition at 0.1 µM: 99%

## Cc1c(C2CC2)nc2ccc(-n3ccc(OCc4cccs4)cc3=O)cn12 [Example 132, 1-(2-Cyclopropyl-3-methylimidazo[1,2-a]pyridin-6-yl)-4-(2-thienylmethoxy)pyridin-2(1H)-one]
[1]
  inhibition at 0.1 µM: 51%
[2]
  inhibition at 0.1 µM: 96%

## Cc1c(C2CC2)nc2ccc(-n3ccc(OCc4ccsc4)cc3=O)cn12 [Example 133, 1-(2-Cyclopropyl-3-methylimidazo[1,2-a]pyridin-6-yl)-4-(3-thienylmethoxy)pyridin-2(1H)-one]
[1]
  inhibition at 0.1 µM: 79%
[2]
  inhibition at 0.1 µM: 98%

## Cn1c(C2CC2)nc2ccc(-n3ccc(OCc4ccc(F)s4)cc3=O)cc21 [Example 157, 1-(2-Cyclopropyl-1-methyl-1H-benzimidazol-6-yl)-4-((5-fluorothiophen-2-yl)methoxy)pyridin-2(1H)-one]
[1]
  inhibition at 0.1 µM: 71%
[2]
  inhibition at 0.1 µM: 95%

## Cn1c(C2CC2)nc2ccc(-n3ccc(OCc4ccc(C(F)(F)F)s4)cc3=O)cc21 [Example 159, 1-(2-Cyclopropyl-1-methyl-1H-benzimidazol-6-yl)-4-((5-(trifluoromethyl)thiophen-2-yl)methoxy)pyridin-2(1H)-one]
[1]
  inhibition at 0.1 µM: 87%
[2]
  inhibition at 0.1 µM: 107%

## Cc1c(C2CC2)nc2ccc(-n3ccc(OCc4csc(Cl)c4)cc3=O)cn12 [Example 164, 4-((5-Chlorothiophen-3-yl)methoxy)-1-(2-cyclopropyl-3-methylimidazo[1,2-a]pyridin-6-yl)pyridin-2(1H)-one]
[1]
  inhibition at 0.1 µM: 92%
[2]
  inhibition at 0.1 µM: 102%

## Cc1c(C2CC2)nc2ccc(-n3ccc(OCc4cc(Cl)cs4)cc3=O)cn12 [Example 168, 4-((4-Chlorothiophen-2-yl)methoxy)-1-(2-cyclopropyl-3-methylimidazo[1,2-a]pyridin-6-yl)pyridin-2(1H)-one]
[1]
  inhibition at 0.1 µM: 84%
[2]
  inhibition at 0.1 µM: 103%

## Cc1c(C2CC2)nc2ccc(-n3ccc(COc4ccc(F)cc4)cc3=O)cn12 [Example 170, 1-(2-Cyclopropyl-3-methylimidazo[1,2-a]pyridin-6-yl)-4-((4-fluorophenoxy)methyl)pyridin-2(1H)-one]
[1]
  inhibition at 0.1 µM: 23%
[2]
  inhibition at 0.1 µM: 62%

## Cc1c(C2CC2)nc2ccc(-n3ccc(OCc4csc(Br)c4)cc3=O)cn12 [Example 177, 4-((5-Bromo-3-thienyl)methoxy)-1-(2-cyclopropyl-3-methylimidazo[1,2-a]pyridin-6-yl)pyridin-2(1H)-one]
[1]
  inhibition at 0.1 µM: 97%
[2]
  inhibition at 0.1 µM: 97%

## Cc1c(C2CC2)nc2ccc(-n3ccc(OCc4ccc(C(F)F)s4)cc3=O)cn12 [Example 178, 1-(2-Cyclopropyl-3-methylimidazo[1,2-a]pyridin-6-yl)-4-((5-(difluoromethyl)-2-thienyl)methoxy)pyridin-2(1H)-one]
[1]
  inhibition at 0.1 µM: 74%
[2]
  inhibition at 0.1 µM: 69%

## Cc1c(C2CC2)nc2ccc(-n3ccc(OCc4csc(C(F)(F)F)n4)cc3=O)cn12 [Example 179, 1-(2-Cyclopropyl-3-methylimidazo[1,2-a]pyridin-6-yl)-4-((2-(trifluoromethyl)-1,3-thiazol-4-yl)methoxy)pyridin-2(1H)-one]
[1]
  inhibition at 0.1 µM: 64%
[2]
  inhibition at 0.1 µM: 94%

## Cc1c(C2CC2)nc2ccc(-n3ccc(OCc4ccc(C(F)(F)F)o4)cc3=O)cn12 [Example 180, 1-(2-Cyclopropyl-3-methylimidazo[1,2-a]pyridin-6-yl)-4-((5-(trifluoromethyl)-2-furyl)methoxy)pyridin-2(1H)-one]
[1]
  inhibition at 0.1 µM: 64%
[2]
  inhibition at 0.1 µM: 99%

## Cc1c(C2CC2)nc2ccc(-n3ccc(NCc4ccc(Cl)s4)cc3=O)cn12 [Example 181, 4-(((5-Chloro-2-thienyl)methyl)amino)-1-(2-cyclopropyl-3-methylimidazo[1,2-a]pyridin-6-yl)pyridin-2(1H)-one]
[1]
  inhibition at 0.1 µM: 57%
[2]
  inhibition at 0.1 µM: 21%

## Cc1c(C2CC2)nc2ccc(-n3ccc(OCc4csc(C(F)(F)F)c4)cc3=O)cn12 [Example 183, 1-(2-Cyclopropyl-3-methylimidazo[1,2-a]pyridin-6-yl)-4-((5-(trifluoromethyl)-3-thienyl)methoxy)pyridin-2(1H)-one]
[1]
  inhibition at 0.1 µM: 91%
[2]
  inhibition at 0.1 µM: 75%

## Cc1c(C2CC2)nc2ccc(-n3ccc(NCc4ccc(Cl)cc4)cc3=O)cn12 [Example 186, 4-((4-Chlorobenzyl)amino)-1-(2-cyclopropyl-3-methylimidazo[1,2-a]pyridin-6-yl)pyridin-2(1H)-one]
[1]
  inhibition at 0.1 µM: 25%
[2]
  inhibition at 0.1 µM: 74%

## Cc1c(C2CC2)nc2ccc(-n3ccc(OCc4csc(Br)n4)cc3=O)cn12 [Example 189, 4-((2-Bromo-1,3-thiazol-4-yl)methoxy)-1-(2-cyclopropyl-3-methylimidazo[1,2-a]pyridin-6-yl)pyridin-2(1H)-one]
[1]
  inhibition at 0.1 µM: 86%
[2]
  inhibition at 0.1 µM: 100%

## Cc1c(C2CC2)nc2ccc(-n3ccc(OCc4ccc(Br)cc4)cc3=O)cn12 [Example 192, 4-((4-Bromobenzyl)oxy)-1-(2-cyclopropyl-3-methylimidazo[1,2-a]pyridin-6-yl)pyridin-2(1H)-one]
[1]
  inhibition at 0.1 µM: 85%
[2]
  inhibition at 0.1 µM: 98%

## Cc1c(C2CC2)nc2ccc(-n3ccc(OCc4nc(C(F)(F)F)cs4)cc3=O)cn12 [Example 193, 1-(2-Cyclopropyl-3-methylimidazo[1,2-a]pyridin-6-yl)-4-((4-(trifluoromethyl)-1,3-thiazol-2-yl)methoxy)pyridin-2(1H)-one]
[1]
  inhibition at 0.1 µM: 89%
[2]
  inhibition at 0.1 µM: 99%

## Cc1c(C2CC2)nc2ccc(-n3ccc(OCc4nc(Br)cs4)cc3=O)cn12 [Example 194, 4-((4-Bromo-1,3-thiazol-2-yl)methoxy)-1-(2-cyclopropyl-3-methylimidazo[1,2-a]pyridin-6-yl)pyridin-2(1H)-one]
[1]
  inhibition at 0.1 µM: 82%
[2]
  inhibition at 0.1 µM: 100%

## Cn1c(C2CC2)nc2ccc(-n3ccc(OCc4ccc(Cl)o4)cc3=O)cc21 [Example 202, 4-((5-Chloro-2-furyl)methoxy)-1-(2-cyclopropyl-1-methyl-1H-benzimidazol-6-yl)pyridin-2(1H)-one]
[1]
  inhibition at 0.1 µM: 67%
[2]
  inhibition at 0.1 µM: 104%

## Cn1c(C2CC2)nc2ccc(-n3ccc(OCc4cc(Cl)cs4)cc3=O)cc21 [Example 228, 4-((4-Chlorothiophen-2-yl)methoxy)-1-(2-cyclopropyl-1-methyl-1H-benzimidazol-6-yl)pyridin-2(1H)-one]
[1]
  inhibition at 0.1 µM: 89%
[2]
  inhibition at 0.1 µM: 103%

From patent publication US9365540B2, “Benzimidazole derivatives as MCH receptor antagonists” (Takeda Pharmaceutical Company Limited, priority 2012, dated 2016)
